Data from PubChem BioAssay AID1996.
In brackets after ≈: the same amount, converted by molar mass.

conditions: buffer; pH 7.4; 200.0 µM

Compound	solubility kinetic
Cc1cc(/C=C(\C#N)C(=O)N2CCCCC2)cc(C)c1O	> 42.7 µg/mL
CCCNc1nc2c(c(=O)[nH]c(=O)n2C)n1CCOc1ccccc1	4 µg/mL (≈ 11.6 µM)
CC(C)N1CC(COc2ccc(Cl)cc2Cl)OC1=O (stereo unspecified)	> 45.6 µg/mL
O=C(Nc1cccc(F)c1)C1CCN(C(=O)c2ccco2)CC1	44.4 µg/mL (≈ 140 µM)
Fc1ccccc1CN1CCCC(NC2CCC2)C1 (stereo unspecified)	36.9 µg/mL (≈ 141 µM)
O=C(Cn1c(=O)cnc2ccccc21)Nc1cc(Cl)ccc1N1CCOCC1	51.6 µg/mL (≈ 129 µM)
CCOC(=O)CCCc1ccc(/C(C)=N/NC(N)=S)cc1	> 46.1 µg/mL
O=C(Nc1ccc(F)cc1)c1cccc(N2C(=O)c3ccccc3C2=O)c1	0.7 µg/mL (≈ 1.94 µM)
COc1ccc(/C=C/C(=O)N2CCN(c3ccccn3)CC2)cc1OC	> 53 µg/mL
COc1ccc(C)cc1NC(=S)NN1CCN(C)CC1	> 44.2 µg/mL
O=C(OCC(=O)N1CCCC1)c1c[nH]c2ccccc12	> 40.8 µg/mL
O=C(CNc1cccc(Cl)c1)c1ccc(Br)cc1	< 0.7 µg/mL
CC1(C(=O)NCC2CCCO2)Oc2cccnc2NC1=O (stereo unspecified)	> 43.7 µg/mL
CC(=O)C(c1ccccc1)C(c1ccccc1)C(C)[N+](=O)[O-] (stereo unspecified)	< 0.6 µg/mL
CC1CCc2sc(C(=O)NCCCn3ccnc3)cc2C1 (stereo unspecified)	35 µg/mL (≈ 115 µM)
Cc1ccc(C(C)C)c(OCC(=O)OCC(=O)NC2CC2)c1	> 45.8 µg/mL
CN(C)c1cccc(NC(=O)NC2(C)CCS(=O)(=O)C2)c1 (stereo unspecified)	> 46.7 µg/mL
Fc1ccc(-c2csc(N3CCOCC3)n2)cc1	2.1 µg/mL (≈ 7.94 µM)
NC(=O)CSc1nc2cccnc2n1-c1ccc(F)cc1	45.2 µg/mL (≈ 150 µM)
CCC(NC(=O)c1ccccc1Br)c1ccccc1 (stereo unspecified)	> 47.7 µg/mL
O=C(c1cc(Br)c[nH]1)N1CCSCC1	29.6 µg/mL (≈ 108 µM)

Compound	solubility kinetic
CC(C1CC1)N(Cc1ccccc1)C(=S)Nc1ccccc1Cl (stereo unspecified)	1.1 µg/mL (≈ 3.19 µM)
Nc1ccc2nc(NC(=O)C3CCCCC3)sc2c1	30.2 µg/mL (≈ 110 µM)
CC1CC(C)CN(CC(=O)c2c[nH]c3ccccc23)C1 (stereo unspecified)	37.8 µg/mL (≈ 140 µM)
COC(=O)CN1C(=O)N/C(=C/c2ccc(OC)c(C)c2OC)C1=O	4 µg/mL (≈ 12 µM)
O=C1Nc2cc(Br)ccc2C1(O)c1ccccc1O (stereo unspecified)	> 48 µg/mL
Cc1ccc(NC(=O)N(CCC#N)Cc2ccccc2)cc1	> 44 µg/mL
COC(=O)/C=C1/SC(=Nc2ccc(Cl)c(Cl)c2)NC1=O	1 µg/mL (≈ 3.02 µM)
Cc1ccccc1CN(C)C(C)C(=O)NCc1ccccc1 (stereo unspecified)	37.1 µg/mL (≈ 125 µM)
O=S(=O)(c1ccccc1)N1CC=C(c2ccccc2)CC1	1.1 µg/mL (≈ 3.67 µM)
CCC1CCc2c(sc(NC(=O)c3cnccn3)c2C(N)=O)C1 (stereo unspecified)	1.8 µg/mL (≈ 5.45 µM)
Cc1cccc(CSc2nnc([C@@H]3CCCN3)o2)c1.Cl	> 46.8 µg/mL
CC1(C)C2CCC(C2)C1(C)NC(=O)CN1CCCC1.Cl (stereo unspecified)	> 45.1 µg/mL
CCN1CCN(CC(c2ccccc2)c2ccccc2)CC1	29.1 µg/mL (≈ 98.8 µM)
CCOCCCNc1ccc(N2C(=O)CCCC2=O)cc1[N+](=O)[O-]	> 50.3 µg/mL
O=c1cc(COc2ccc(Cl)c(Cl)c2)nc2sccn12	1.1 µg/mL (≈ 3.36 µM)
O=C(NCCC(=O)N1CCCCC1)c1ccc(Br)cc1	> 50.9 µg/mL
Cn1c(O)c(C=NCCCCCCCCCCC(=O)O)c(=O)n(C)c1=O	> 55.1 µg/mL
COc1ccccc1OCCNC(=O)c1ccc(C)o1	> 41.3 µg/mL
NCCCN1CCN(c2ccccc2)CC1	26.3 µg/mL (≈ 120 µM)
CCCSc1nc2sc3c(c2c(=O)[nH]1)CC(C)(CC)OC3 (stereo unspecified)	1.5 µg/mL (≈ 4.62 µM)
COc1cccc(NC(=O)N(CCN(C)C)C(C)c2cccnc2)c1 (stereo unspecified)	> 51.4 µg/mL

Compound	solubility kinetic
C=CCn1c(N)cc(=O)nc1SCC(=O)Nc1ccccc1C(N)=O	49.9 µg/mL (≈ 139 µM)
CCOC(=O)c1sc(Nc2ccc(OCC)cc2)nc1C	0.9 µg/mL (≈ 2.94 µM)
CN1C(=O)c2ccc(C(=O)Nc3cccnc3)cc2C1=O	> 42.2 µg/mL
CCC(Oc1ccccc1OC)C(=O)Nc1ccc2c(c1)n(C)c(=O)n2C (stereo unspecified)	> 55.4 µg/mL
Cc1ccc2c(c1)c(=O)c1c3n2CCN(CC#N)C3CC1 (stereo unspecified)	37.7 µg/mL (≈ 135 µM)
COc1ccc(C2CC(=O)C=C(NCc3ccccc3)C2)cc1 (stereo unspecified)	14.2 µg/mL (≈ 46.2 µM)
COc1ccc(OCC(=O)N2CCc3ccccc3C2)cc1	29.8 µg/mL (≈ 100 µM)
COC(=O)[C@H](C)NC(=O)NCc1ccc(S(N)(=O)=O)cc1	> 47.3 µg/mL
Cc1ccc2c3c([nH]c2c1)C(=O)CC(C)(C)S3	< 0.5 µg/mL
COCCNc1nc(N)c([N+](=O)[O-])c(N2CCCCCC2)n1	6.3 µg/mL (≈ 20.3 µM)
O=C(O)C1CC1C(=O)Nc1nc2c(Cl)cccc2s1 (stereo unspecified)	> 44.5 µg/mL
Cc1cccc(NS(=O)(=O)c2ccc(C(C)(C)C)cc2)n1	42.7 µg/mL (≈ 140 µM)
COc1ccccc1CCC(=O)Nc1ncc(C)s1	2.5 µg/mL (≈ 9.05 µM)
O=C(CCC(=O)OCC(F)(F)C(F)F)Nc1ccccc1F	> 48.8 µg/mL
CSc1nccc(NC(=O)c2ccc(C(C)(C)C)cc2)n1	4.2 µg/mL (≈ 13.9 µM)
O=C(OCc1cccc([N+](=O)[O-])c1)c1ccc[nH]c1=O	> 41.1 µg/mL
Cc1cccn2cc(-c3cccc(NC(=O)c4cccs4)c3)nc12	5.5 µg/mL (≈ 16.5 µM)
Br.Cc1ccc(C(=O)Cn2c(=N)n(N)c3ccccc32)cc1	> 54.2 µg/mL
CCC(=O)c1ccc(OCC(=O)Nc2ccccc2N2CCCCC2)cc1	< 0.4 µg/mL
